Where no end group is shown, it is not given here.
Assay: Physiological parameters in ischemic rats
Format: in vivo
Conditions: SN treated vs saline treated rats, n=7
Excerpt: Seven SN treated rats and seven-saline treated rats also had their physiological parameters measured.

TNEIVEEQYTPQSLATLESVFQELGKLTGPNNQ [SN, secretoneurin]
No difference: blood gases | blood glucose | serum electrolyte levels | systemic blood pressure

From US7427597B2, “Method of treating brain tissue damages” (Academia Sinica, priority 2005, dated 2008)
